From patent US5444151A, “Platelet derived growth factor antagonists” (Ludwig Institute for Cancer Research, priority 1992, dated 1995)
Entries after “also recorded” stand apart in the source; their conditions may differ. Numbered stars: 1 amine (or outer) side, 2 acyl side, 3 side chain; on linkers, the order of the positions; unused ones are H or OH. Square brackets hold non-standard residues; d marks the D form. Peptide text beside a SMILES is read from it. X1 = CSc1ccc(-c2[nH]c3ccccc3c2C[C@H](N[*:1])C(=O)[*:2])cc1

Tests used:
[1] = system: human foreskin fibroblast cells; experiment: Inhibition of 125I-ligand internalization and degradation (TCA non-precipitatable radioactivity); type: cell-based; settings: four hours at 37° C.
Protocol: To do this, confluent human foreskin fibroblast cells in 12 well dishes were washed once with 1.0 ml of Ham's F-12 medium, supplemented with 1 mg/ml BSA. As described supra, those cells to be tested later for ^125 I-PDGF-BB degradation were preincubated with PDGF-AA to down regulate α receptors. […] The mixtures were incubated for four hours at 37° C., the incubation medium was removed, and then precipitated with trichloroacetic acid at 10% final concentration. The amount of trichloroacetic acid non-precipitatable radioactivity in cell culture medium was taken as an estimate of ligand degradation--i.e., it represents ligand that had been internalized, degraded and released into the medium in the form of free ^125 I, ^[…] or low molecular weight fragments. This parameter was defined after four hours of incubation at 37° C.

[2] = system: human foreskin fibroblasts; experiment: Ligand stimulated [3H]thymidine incorporation; type: cell-based
Text: The possible role of peptide 16T as an antagonist for PDGF activity in vivo was investigated. Following the methodology of Betsholtz et al., J. Cell Physiol 118: 203-210 (1984), the disclosure of which is incorporated by reference, [^3 H] thymidine incorporation by human fibroblasts in the presence of various peptides was studied.

PDGF-α receptor = target: T1, PDGF-α receptor (Homo sapiens, UniProt P16234); experiment: Competition with 125I-PDGF-AA for binding to AG1518 fibroblasts
T1 construct: cultures of human foreskin fibroblast cell line AG1518; endogenous in cells; host or cells: AG1518 human foreskin fibroblasts
Protocol: (§1) In order to test for receptor binding, cultures of human foreskin fibroblast cell line AG1518 (obtained from the Human Mutant Cell Repository), were grown to confluence in Ham's F-12 medium containing 10% newborn calf serum. Those cells which were to be used in analysis of PDGF-β receptor binding were preincubated for 60 minutes at 37° C. in 0.5 ml/well of Ham's F-12 medium, supplemented with 1 mg/ml of bovine serum albumin (BSA), and 50 ng/ml of PDGF-AA. This combination down regulates PDGF-α receptor, as per Claesson-Welsh et al., J. Biol. Chem. 264: 1742-1747 (1989).
(§2) Cells were prepared for receptor binding analyses by washing with ice cold binding buffer (phosphate buffered saline with 0.9 mM CaCl2, 0.49 mM MgSO4 and 1 mg/ml BSA). The cells were then incubated on ice for 90 minutes with different concentrations (0-100 ug/ml) of synthetic peptides (listed in Table 1, infra), in 0.5 ml of binding buffer per well. […] The labelled ligand was added and then incubated for 60 minutes at 0° C. after which the cells were washed five times with ice cold binding buffer. The washed cells were then lysed for 60 minutes at room temperature in a lysis buffer (1% Triton X-100, 10% glycerol, 20 mM Tris-HCl, pH 7.5). Solubilized radioactivity was determined in a gamma counter. Competing activities of synthetic peptides were compared to standard curves, using unlabelled ligand.

PDGF-β receptor [3] = target: T2, PDGF-β receptor (Sus scrofa, UniProt A0A8W4FFG6); experiment: Autophosphorylation and dimerization of partially purified PDGF-β receptor; type: biochemical, porcine; settings: nearly complete for 16T, complete for 16; about 100 ng receptor, 100 ng PDGF-BB, 40 ul
T2 construct: from Triton X-100 solubilized porcine uterus membranes and purified up to the Mono-Q chromatography step; from tissue; host or cells: porcine uterus membranes
Protocol: A preparation of PDGF-β receptor, from Triton X-100 solubilized porcine uterus membranes and purified up to the Mono-Q chromatography step of Ronnstrand et al., J. Biol. Chem. 262: 2929-2932 (1987), was made, and the autophosphorylation assay described therein was carried out.
Approximately 100 ng of the receptor was incubated for 5 minutes at 0° C. with peptide 16T or peptide 20, at different concentrations. […] Four ul of 150 μM [^32 P]ATP (containing 5×10^6 cpm of radioactivity) was added, followed by an additional 10 minutes of incubation at 0° C. Incorporation of radioactivity was terminated by adding 5 μl of 15 mM unlabelled ATP and 5 μl of 40 mM phenylphosphate. Samples were cross linked by incubating with 0.5 mM DSS (12.5 mM, in dimethyl sulfoxide) for 30 minutes at room temperature. The cross linking reaction was blocked by adding 50 mM methylammonium chloride, 20 mM Hepes, pH 7.4.

PDGF-α or β receptors = experiment: PDGF receptor internalization and down regulation; type: cell-based, human; settings: four hours at 37° C.; surface receptors estimated with 125I-PDGF-BB
Protocol: As binding of PDGF to receptors leads to receptor internalization and down regulation, investigations were carried out to determine whether the interaction of PDGF and peptide […] led to the internalization and down regulation of receptors. To test this, confluent cells, as described supra, were washed once with binding buffer at 37° C., followed by incubation with different concentrations of synthetic peptide (0.5 ml of PBS containing 1 mg/ml BSA). Following this, the cells were incubated at 37° C. for four hours, followed by washing with 1 ml of ice cold buffer consisting of 20 mM Na-acetate, 150 mM NaCl, 0.2% BSA adjusted to pH 3.7 with acetic acid. The cells were then incubated for 10 minutes on ice in buffer, followed by two washings with 1 ml binding buffer, at pH 7.4. The number of PDGF receptors on the cell surface was estimated by incubation with ^125 I-PDGF-BB (~50,000cpm) in 0.5 ml binding buffer for 60 minutes on ice, followed by washing, lysis and determination of cell bound radioactivity.

PDGF-β receptor [4] = target: T3, PDGF-β receptor (Homo sapiens, UniProt P09619); experiment: Competition with 125I-PDGF-BB for binding to AG1518 fibroblasts (α receptor down regulated by PDGF-AA preincubation); settings: AG1518 cells, competing activity
T3 construct: cultures of human foreskin fibroblast cell line AG1518; endogenous in cells; host or cells: AG1518 human foreskin fibroblasts (Human Mutant Cell Repository)
Protocol: as §1, §2
In Table 2, "+++" means <30 μM; "++" from 30-60 μM; "+" 60-150 μM; and "-", >150 μM.

EGF receptor [5] = target: T4, EGF receptor (Homo sapiens, UniProt P00533); experiment: Competition with 125I-EGF for binding to AG1518 fibroblasts
T4 construct: cultures of human foreskin fibroblast cell line AG1518; endogenous in cells; host or cells: human foreskin fibroblasts (AG1518)
Protocol: as §1, §2

EGF receptor [6] = target: T4, EGF receptor; experiment: EGF induced receptor dimerization and autophosphorylation in intact cells; type: cell-based; settings: EGF 300 ng/ml, intact fibroblasts
Protocol: (§3) Confluent human foreskin fibroblast cells were used (25 cm^2 dishes of cultures). The cells were washed twice with binding buffer, as described supra, with 1 mg/ml BSA added thereto. This was followed by 90 minutes of incubation with one of synthetic peptides 16, […], 20 and […] on ice. […] A dimerization assay was then carried out, basically following Eriksson et al., Growth Factors 6: 1-14 (1992). Essentially, receptors were cross linked for 20 minutes at room temperature in 1 mM BS^3 (Bis(sulfosuccinimidyl)suberate) in lysis buffer (0.5% Triton X-100, 0.5% deoxycholate, […], pH 7.4, 150 mM NaCl, 10 mM EDTA, 1 mM PMSF (phenylmethylsulfonyl fluoride), 1% Trasylol (aprotinin), 100 μM ortovandat, a phosphatase inhibitor). Cross linking was quenched by adding 70 mM methylammonium chloride for 10 minutes. Samples were then subjected to SDS gel electrophoresis in 4% slab gels, followed by electroblotting on to nitrocellulose membranes. The blocked membranes were incubated for two hours with affinity purified phosphotyrosine antibodies (Ek et al., J. Biol. Chem. 259: 1145-11152 (1984)), followed by three washes. Blots were then incubated for 45 minutes with peroxidase conjugated, affinity purified swine antirabbit IgG immunoglobulin. After an additional three washes, complexes were visualized using the ECL developing system.

PDGF receptors = experiment: PDGF-BB induced receptor dimerization and autophosphorylation in intact cells; type: cell-based, human; settings: PDGF-BB 300 ng/ml, intact fibroblasts
Protocol: as §3

T1 sequence (P16234 24-1089): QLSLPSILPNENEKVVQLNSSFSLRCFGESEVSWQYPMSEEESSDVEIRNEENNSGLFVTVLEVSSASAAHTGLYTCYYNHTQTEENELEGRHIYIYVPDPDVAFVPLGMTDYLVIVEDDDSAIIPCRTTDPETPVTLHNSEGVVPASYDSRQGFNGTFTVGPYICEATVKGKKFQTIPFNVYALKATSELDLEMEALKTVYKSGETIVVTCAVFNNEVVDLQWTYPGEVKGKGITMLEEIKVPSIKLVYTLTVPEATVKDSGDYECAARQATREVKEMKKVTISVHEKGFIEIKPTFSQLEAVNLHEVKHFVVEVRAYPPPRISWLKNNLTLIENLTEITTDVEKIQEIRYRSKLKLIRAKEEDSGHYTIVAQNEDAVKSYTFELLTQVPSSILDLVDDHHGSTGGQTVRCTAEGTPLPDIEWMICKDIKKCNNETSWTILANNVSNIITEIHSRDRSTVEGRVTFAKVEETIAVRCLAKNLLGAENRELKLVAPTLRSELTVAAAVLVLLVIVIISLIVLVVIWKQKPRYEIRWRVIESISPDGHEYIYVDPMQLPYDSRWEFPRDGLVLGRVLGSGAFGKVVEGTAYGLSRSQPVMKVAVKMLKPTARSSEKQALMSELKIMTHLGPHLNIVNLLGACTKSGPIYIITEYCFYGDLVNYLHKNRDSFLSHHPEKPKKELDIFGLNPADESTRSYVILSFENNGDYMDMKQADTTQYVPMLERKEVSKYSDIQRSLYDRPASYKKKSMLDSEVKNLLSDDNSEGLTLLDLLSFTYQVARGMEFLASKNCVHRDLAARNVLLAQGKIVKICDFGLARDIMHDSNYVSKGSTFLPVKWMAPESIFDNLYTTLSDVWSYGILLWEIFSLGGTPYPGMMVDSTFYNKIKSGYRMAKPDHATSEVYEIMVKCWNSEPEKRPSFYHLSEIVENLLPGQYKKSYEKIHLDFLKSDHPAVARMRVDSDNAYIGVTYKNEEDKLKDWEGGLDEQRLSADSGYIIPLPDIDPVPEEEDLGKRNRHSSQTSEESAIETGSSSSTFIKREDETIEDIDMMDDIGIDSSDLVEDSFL
T4 sequence (P00533 25-1210): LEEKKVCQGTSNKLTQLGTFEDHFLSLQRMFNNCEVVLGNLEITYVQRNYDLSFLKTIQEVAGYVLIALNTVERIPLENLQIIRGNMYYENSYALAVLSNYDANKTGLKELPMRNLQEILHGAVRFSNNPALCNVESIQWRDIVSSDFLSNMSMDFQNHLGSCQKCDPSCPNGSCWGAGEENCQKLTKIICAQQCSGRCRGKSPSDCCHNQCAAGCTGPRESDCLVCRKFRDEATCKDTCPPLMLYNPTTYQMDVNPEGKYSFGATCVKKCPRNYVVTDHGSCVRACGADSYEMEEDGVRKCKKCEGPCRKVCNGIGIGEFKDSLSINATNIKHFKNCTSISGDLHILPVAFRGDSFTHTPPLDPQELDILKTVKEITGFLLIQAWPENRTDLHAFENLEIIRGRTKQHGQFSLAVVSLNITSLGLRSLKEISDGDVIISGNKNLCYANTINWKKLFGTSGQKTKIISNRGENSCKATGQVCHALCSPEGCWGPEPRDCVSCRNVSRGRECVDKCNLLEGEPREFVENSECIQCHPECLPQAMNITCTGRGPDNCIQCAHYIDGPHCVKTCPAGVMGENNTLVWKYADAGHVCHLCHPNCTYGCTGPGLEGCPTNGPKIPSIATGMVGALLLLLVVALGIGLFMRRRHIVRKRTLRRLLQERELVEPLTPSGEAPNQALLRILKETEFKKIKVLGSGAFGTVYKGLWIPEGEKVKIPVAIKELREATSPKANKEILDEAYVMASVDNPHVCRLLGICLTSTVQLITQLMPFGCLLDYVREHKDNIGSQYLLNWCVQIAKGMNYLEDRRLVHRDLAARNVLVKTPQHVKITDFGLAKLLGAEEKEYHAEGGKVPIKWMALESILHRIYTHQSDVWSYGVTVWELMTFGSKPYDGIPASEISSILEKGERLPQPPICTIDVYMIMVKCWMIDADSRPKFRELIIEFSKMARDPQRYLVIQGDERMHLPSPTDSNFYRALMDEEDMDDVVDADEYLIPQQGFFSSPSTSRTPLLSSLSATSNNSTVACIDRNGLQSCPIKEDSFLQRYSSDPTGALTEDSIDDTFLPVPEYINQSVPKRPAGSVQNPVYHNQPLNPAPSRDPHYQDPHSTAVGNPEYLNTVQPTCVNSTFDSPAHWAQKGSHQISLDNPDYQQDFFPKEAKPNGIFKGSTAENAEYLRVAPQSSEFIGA
T3 sequence (P09619 33-1106): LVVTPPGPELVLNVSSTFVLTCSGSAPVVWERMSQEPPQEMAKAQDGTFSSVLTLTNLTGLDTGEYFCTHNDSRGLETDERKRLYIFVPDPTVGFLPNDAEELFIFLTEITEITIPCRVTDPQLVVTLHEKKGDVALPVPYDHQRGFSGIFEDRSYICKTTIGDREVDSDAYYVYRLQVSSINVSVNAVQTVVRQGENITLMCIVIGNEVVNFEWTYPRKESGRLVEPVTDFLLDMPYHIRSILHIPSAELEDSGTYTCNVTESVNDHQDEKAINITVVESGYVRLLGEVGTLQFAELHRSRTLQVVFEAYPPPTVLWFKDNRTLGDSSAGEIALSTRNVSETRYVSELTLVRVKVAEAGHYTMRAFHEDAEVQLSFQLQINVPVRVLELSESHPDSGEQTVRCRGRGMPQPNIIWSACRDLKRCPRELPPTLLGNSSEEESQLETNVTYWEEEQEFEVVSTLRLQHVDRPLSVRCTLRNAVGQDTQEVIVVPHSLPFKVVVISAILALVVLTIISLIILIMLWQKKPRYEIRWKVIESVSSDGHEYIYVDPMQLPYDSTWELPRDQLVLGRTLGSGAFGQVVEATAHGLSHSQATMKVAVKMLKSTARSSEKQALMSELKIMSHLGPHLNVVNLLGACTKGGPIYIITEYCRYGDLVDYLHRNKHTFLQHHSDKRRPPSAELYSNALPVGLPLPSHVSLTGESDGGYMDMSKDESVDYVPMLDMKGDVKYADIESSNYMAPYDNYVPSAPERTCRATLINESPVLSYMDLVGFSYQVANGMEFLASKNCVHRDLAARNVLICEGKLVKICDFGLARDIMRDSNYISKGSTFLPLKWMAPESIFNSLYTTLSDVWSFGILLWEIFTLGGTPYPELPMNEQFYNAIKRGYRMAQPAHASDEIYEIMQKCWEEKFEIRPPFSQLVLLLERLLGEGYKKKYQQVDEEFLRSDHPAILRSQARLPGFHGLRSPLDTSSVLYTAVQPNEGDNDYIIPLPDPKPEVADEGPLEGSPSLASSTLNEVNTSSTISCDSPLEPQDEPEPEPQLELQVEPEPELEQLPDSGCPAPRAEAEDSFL
T2 sequence (A0A8W4FFG6 32-1102): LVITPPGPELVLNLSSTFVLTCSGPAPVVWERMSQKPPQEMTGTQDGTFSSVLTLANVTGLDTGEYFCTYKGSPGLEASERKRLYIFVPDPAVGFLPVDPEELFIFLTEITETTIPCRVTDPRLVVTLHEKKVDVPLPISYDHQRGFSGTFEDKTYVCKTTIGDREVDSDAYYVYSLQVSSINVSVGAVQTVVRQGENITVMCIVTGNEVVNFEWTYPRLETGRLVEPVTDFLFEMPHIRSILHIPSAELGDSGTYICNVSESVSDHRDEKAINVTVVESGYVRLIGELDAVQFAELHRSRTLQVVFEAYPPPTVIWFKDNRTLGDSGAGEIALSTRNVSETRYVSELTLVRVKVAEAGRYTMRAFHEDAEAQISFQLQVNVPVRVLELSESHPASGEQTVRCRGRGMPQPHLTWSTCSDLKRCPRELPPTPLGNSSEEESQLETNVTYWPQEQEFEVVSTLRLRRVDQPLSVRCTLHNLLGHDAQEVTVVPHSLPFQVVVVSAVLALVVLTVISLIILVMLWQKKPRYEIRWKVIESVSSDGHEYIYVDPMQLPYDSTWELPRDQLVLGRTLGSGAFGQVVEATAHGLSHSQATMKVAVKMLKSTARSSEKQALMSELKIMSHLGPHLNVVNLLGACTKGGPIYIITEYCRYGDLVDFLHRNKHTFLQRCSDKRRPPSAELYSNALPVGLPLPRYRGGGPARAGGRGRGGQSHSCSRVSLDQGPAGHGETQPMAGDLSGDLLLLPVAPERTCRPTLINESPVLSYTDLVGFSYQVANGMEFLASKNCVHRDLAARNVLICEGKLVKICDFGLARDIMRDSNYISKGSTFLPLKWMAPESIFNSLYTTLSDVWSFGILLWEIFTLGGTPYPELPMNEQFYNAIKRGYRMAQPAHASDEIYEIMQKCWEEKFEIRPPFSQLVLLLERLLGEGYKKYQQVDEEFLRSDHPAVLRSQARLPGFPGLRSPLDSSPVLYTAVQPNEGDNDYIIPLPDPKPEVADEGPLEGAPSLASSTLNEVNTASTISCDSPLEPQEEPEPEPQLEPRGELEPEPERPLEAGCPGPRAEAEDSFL

## CC[C@H](C)[C@H](NC(=O)[C@H](CCC(=O)O)NC(=O)[C@H](Cc1c(-c2ccc(SC)cc2)[nH]c2ccccc12)NC(=O)[C@@H](NC(=O)[C@H](CC(C)C)NC(=O)[C@H](Cc1ccccc1)NC(=O)[C@H](CC(N)=O)NC(=O)[C@H](C)N)C(C)C)C(=O)N[C@H](C(=O)N[C@@H](CCCNC(=N)N)C(=O)N[C@@H](CCCCN)C(=O)N[C@@H](CCCCN)C(=O)N1CCC[C@H]1C(=O)O)C(C)C [*16T, Ala Asn Phe Leu Val Xaa Glu Ile Val Arg Lys Lys Pro] (H-ANFLV[X1]EIVRKKP-OH; N-terminus and C-terminus assumed)
[1]
  Inhibition of 125I-PDGF-AA degradation (in words): most effective
[1]; α receptors down regulated
  Inhibition of 125I-PDGF-BB degradation (in words): most potent
[2]; PDGF-AA, PDGF-BB or EGF stimulation
  Effect on ligand stimulated [3H]thymidine incorporation (in words): did inhibit PDGF-AA and PDGF-BB induced mitogenicity, but also EGF induced mitogenicity
[2]; no ligand
  Effect on background [3H]thymidine incorporation (in words): lowered background incorporation of [^3 H] thymidine dramatically
[2]; peptide present, no ligand, mean of duplicates
  [3H]thymidine incorporation, Control: 46 cpm
[2]; peptide present, stimulated with EGF, mean of duplicates
  [3H]thymidine incorporation, EGF: 119 cpm
[2]; peptide present, stimulated with PDGF-AA, mean of duplicates
  [3H]thymidine incorporation, PDGF-AA: 90 cpm
[2]; peptide present, stimulated with PDGF-BB, mean of duplicates
  [3H]thymidine incorporation, PDGF-BB: 102 cpm
PDGF-α receptor; AG1518 cells
  Receptor competing activity, PDGF-AA binding (in words): higher activity; also recorded: effective competitor
PDGF-α receptor; α receptor
  50% competition for receptor binding: Forty-four
PDGF-β receptor [3]
  Amount of peptide giving complete inhibition of dimerization and autophosphorylation: 5 µg
PDGF-α or β receptors
  Down regulation of PDGF receptors (in words): did not downregulate
PDGF-β receptor [4]
  Receptor competing activity, PDGF-BB binding (in words): effective competitor; also recorded: far more efficient in competing with PDGF for receptor binding
EGF receptor [5]
  Competition for binding of 125I-EGF to the EGF receptor (in words): none of peptides 16, 16T, 20 and 20T compete
EGF receptor [6]
  Effect on EGF induced autophosphorylation and dimerization (in words): no effect
PDGF receptors
  Inhibition of PDGF induced autophosphorylation and dimerization: about 55%
